Test results taken from patent US9688637B2, “3-amidobenzamides and uses thereof for increasing cellular levels of A3G and other A3 family members” (Northwestern University, priority 2014, dated 2017).

Experiments:
293T cells = assay: Cellular cytotoxicity by counting cells after 48 hrs with compound vs DMSO; assay type: cell-based; settings: 48 hrs; for Cytotoxicity: Cell Proliferation Blocked at: concentration at which proliferation was blocked
Experimental: (§1) To screen compounds that can boost A3G levels, 293T cells (25,000 cells per well in 96-well plate) stably expressing A3G-Luc protein or A3G-Luc/Vif proteins were plated. After 24 hrs post plating culture medium was replaced with 100 μl of new medium containing either DMSO as a control or various compounds (10 μM concentration). After 48 hrs of incubation with compounds culture medium was removed from each well and replaced with 100 μl of Britelite Plus luciferase assay substrate (PerkinElmer). Following 5 min. of incubation at room temperature, 75 μl of each cell lysate was transferred to a 96-well OptiPlate 96 (PerkinElmer) and luminescence was measured in a VICTOR X2 Multilabel Reader (PerkinElmer). Relative activity of compounds for their boosting capability A3G-Luc activity was calculated by plotting DMSO-treated A3G-Luc or A3G-Luc/Vif cells as 100%. Cellular cytotoxicity was measured by counting number of cells after 48 hrs of incubation with compounds compared to DMSO treated cells.

A3G-Luc = A3G-Luc luciferase screen in 293T cells stably expressing A3G-Luc; assay type: cell-based, human; settings: 10 μM, 48 hrs, DMSO = 100%
Source text: This background led to construction of cell lines to use in a search for compounds that might boost levels of A3s in the HIV target cells of the majority of HIV-infected persons who are non-controllers. The goal is to test a strategy of using such a booster in acute/early infection to prevent the hypothesized decrease of A3G and related A3s in an effort to increase “control” in persons lacking HLA B57/27-associated control. […] 293T and TZM-bl cells were maintained in DMEM (containing 4.5 g/liter glucose, L-glutamine, and sodium pyruvate) medium plus 10% fetal bovine serum, 50 IU/ml penicillin, and 50 μg/ml streptomycin at 37° C. and 5% CO2 throughout the experiments. […]. After collecting viral supernatant, 293T cells were infected with viral particles harboring the A3G-Luc expressing vector and selected with puromycin (0.75 μg/ml) for three days. Ten single cell clones of stable cells were isolated and tested for expression of A3G-Luc protein by both immunoblotting using antibody against A3G and measuring luciferase activity. Expressions in cell lines used for subsequent experiments are depicted in FIG. 2, upper panel. The A3G-Luc fusion protein was sensitive to Vif-mediated degradation (FIG. 3). Similar cells lines stably expressing A3F were constructed with the same methods (not shown).
as §1, with “After 24 hrs post plating culture medium was replaced with 100 μl of new medium containing either DMSO as a control or various compounds (10 μM concentration).” left out

Wild-type HIV-1 [1] = assay: A3G-mediated restriction of wild-type HIV-1; virus from 293T stably expressing A3G, TZM-bl readout; assay type: cell-based; settings: Human immunodeficiency virus 1, HEK-293T, read-out: A3G-mediated Restriction by Compounds on Wild-type HIV-1 (% of HIV replication relative to DMSO treated Control)
Experimental: (§2) To test the effect of compounds shown to boost A3G-Luc levels in our screening systems on inhibition of wild-type HIV-1 replication by A3G or A3F, 293T cell lines stably expressing A3G or A3F were plated (750,000 cells per well in 6-well plate). At 24 hrs post plating, 1.5 μg of a wild-type (Vif-positive) HIV-1 proviral vector, NL4.3, was transfected into the 293T stable cell lines expressing either A3G or A3F. At 4 hrs post transfection, either DMSO as a control or an individual compound from series described below was added into the culture medium at a 10 μM concentration. At 1 day post transfection, supernatant fluids containing viral particles were filtered through […] filter to remove cellular debris. To test the effect of compound on HIV-1 replication, TZM-bl indicator cells were plated at a density of 10,000 cells/well in a 96 well culture plate 24 hrs prior to infection. TZM-bl indicator cells express luciferase gene under the control of HIV LTR promoter and are routinely used to measure HIV-1 replication capability. On the day of infection, the culture medium was removed and the cells inoculated with equal amount of HIV-1 particles in triplicate with 100 μl of viral supernatants in culture medium containing 20 μg/ml DEAE-dextran. After 24 hrs of incubation, culture medium was removed from each well and replaced with 100 μl of Britelite Plus luciferase assay substrate. Following 5 min. of incubation at room temperature, 75 μl of each cell lysate was transferred to a 96-well OptiPlate 96 and luminescence was measured in a VICTOR X2 Multilabel Reader as described above. Relative infectivity was calculated by plotting luciferase activity from viral particle from DMSO treated A3G or A3F cell lines as 100%. We only tested effect A3F- or A3G mediated restriction of HIV-1 replication by compounds boosting luciferase activity by more than 160% compared to DMSO control sample.

A3G-Luc/Vif = A3G-Luc/Vif luciferase screen in 293T cells stably co-expressing A3G-Luc and HIV-1 Vif; assay type: cell-based, human; settings: 10 μM, 48 hrs, DMSO = 100%
Experimental: FIG. 6. 293T cell clone #6 stably co-expressing A3G-Luciferase fusion protein together with HIV-1 Vif was used. Small molecule compounds were tested for their effects on stability of A3G and inhibition of Vif activity against A3G by measuring luciferase activity, relative to treatment with control DMSO only. The relative % luciferase activity was higher after treatment with NU compounds than DMSO.
[…]. After sorting, expression of both A3G-Luc and Vif was confirmed by immunoblotting using antibody against both A3G and Vif.
as §1

Wild-type HIV-1 [2] = assay: A3F-mediated restriction of wild-type HIV-1; virus from 293T stably expressing A3F, TZM-bl readout; assay type: cell-based; settings: Human immunodeficiency virus 1, HEK-293T, read-out: A3F-mediated Restriction by Compounds on Wild-type HIV-1 (% of HIV replication relative to DMSO treated Control)
Experimental: as §2

SMILES	Cytotoxicity: Cell Death at (293T cells; concentration at which cell death was seen)	Cytotoxicity: Cell Proliferation Blocked at (293T cells)	A3G-Luc Activity (% of Relative Light Units compared to DMSO treated control) (A3G-Luc) [%]	activity at 10 µM (Wild-type HIV-1 [1]) [%]	Vif-A3G-Luc Activity (% of RLUs compared to DMSO treated control) (A3G-Luc/Vif) [%]	activity at 10 µM (Wild-type HIV-1 [2]) [%]
COc1ccc(C(=O)Nc2cc(OC)c(OC)c(OC)c2)cc1N [NU-49]	Cell Death at 10 μM					
CC(C)(C)OC(=O)NCCOCCOc1ccc(C(=O)Nc2ccc(Cl)c(Cl)c2)cc1N [NU-124]		Cell Proliferation Blocked at 10 μM	25			
CC(C)C(=O)Nc1cc(C(=O)Nc2ccc(Cl)c(Cl)c2)ccc1OCCOCCNC(=O)OC(C)(C)C [NU-125]		Cell Proliferation Blocked at 10 μM	25			
CC(C)(C)OC(=O)NCCOCCOc1ccc(C(=O)Nc2ccc(Cl)c(Cl)c2)cc1NC(=O)CC1CC1 [NU-126]		Cell Proliferation Blocked at 10 μM	4.8			
CC(C)C(=O)Nc1cc(C(=O)Nc2ccc(Cl)c(Cl)c2)ccc1OCCOCCNC(=O)CCCCC1SC[C@@H]2NC(=O)N[C@H]12 (some centres unmarked) [NU-127]		Cell Proliferation Blocked at 10 μM	68			
O=C(CCCCC1SC[C@@H]2NC(=O)N[C@H]12)NCCOCCOc1ccc(C(=O)Nc2ccc(Cl)c(Cl)c2)cc1NC(=O)CC1CC1 (some centres unmarked) [NU-128]			141	62		
COc1ccc(C(=O)Nc2ccc(Cl)c(Cl)c2)cc1NC(=O)C(C)(C)C [NU-458]			189	54	123	45
COC(=O)Nc1cc(C(=O)Nc2ccc(Cl)c(Cl)c2)ccc1OC [NU-460]			254	34	119	34
COCC(=O)Nc1cc(C(=O)Nc2ccc(Cl)c(Cl)c2)ccc1OC [NU-462]			282	62	170	53
COCCC(=O)Nc1cc(C(=O)Nc2ccc(Cl)c(Cl)c2)ccc1OC [NU-463]			287	64	178	67
COc1ccc(C(=O)Nc2ccc(Cl)c(Cl)c2)cc1NC(=O)C1CCCO1 (centres unmarked) [NU-464]			288	77	170	77
COc1ccc(C(=O)Nc2ccc(Cl)c(Cl)c2)cc1NC(=O)C1CC1C (centres unmarked) [NU-465]			193	47	106	53
COc1ccc(C(=O)Nc2ccc(Cl)c(Cl)c2)cc1NS(C)(=O)=O [NU-467]			194	79	146	64
COc1ccc(C(=O)Nc2ccc(Cl)c(Cl)c2)cc1NS(=O)(=O)C(C)C [NU-468]			213	58	147	48
COc1ccc(C(=O)Nc2ccc(Cl)c(Cl)c2)cc1NC(=O)CN(C)C [NU-471]			238	66	175	65
COc1ccc(C(=O)Nc2ccc(Cl)c(Cl)c2)cc1NC(=O)N(C)C [NU-472]			238	61	146	49
COc1ccc(C(=O)Nc2ccc(F)cc2)cc1NC(=O)C(C)C [NU-564]			162	72	102	
CCOc1ccc(C(=O)Nc2ccc(Cl)c(Cl)c2)cc1NC(=O)C1CCC1 [NU-612]			202	81	178	96
CCOc1ccc(C(=O)Nc2ccc(Cl)c(Cl)c2)cc1NC(=O)CC1CC1 [NU-613]			186	98	158	85
COCCOc1ccc(C(=O)Nc2ccc(Cl)c(Cl)c2)cc1NC(=O)C1CCC1 [NU-616]			171	95	152	
COCCOc1ccc(C(=O)Nc2ccc(Cl)c(Cl)c2)cc1NC(=O)CC1CC1 [NU-617]			191	74	182	
